This note sets out measurements from paper PMC4427492, “The Repellent DEET Potentiates Carbamate Effects via Insect Muscarinic Receptor Interactions: An Alternative Strategy to Control Insect Vector-Borne Diseases” (PLoS ONE, 2015).

What is called IC50 is the concentration that gives 50% inhibition. Low readings indicate higher potency, high ones lower potency. Usually Ki stands for the equilibrium dissociation constant of an inhibitor or competing ligand from its target.

The test system of assay [1] is acetylcholinesterase (AChE). The experiment in a line: Ellman spectrophotometric AChE activity assay on DUM neuron suspension. Type of assay: cell-based, Periplaneta americana. For orientation: In Ellman's method for cholinesterases, released thiocholine reacts with DTNB.
The target in assay [2] is T1, human M1 muscarinic acetylcholine receptor (hM1 mAChR) (Homo sapiens, UniProt P11229).
T1 construct: gene CHRM1; membranes of CHO cells stably expressing human M1
T1 sequence (P11229 1-460): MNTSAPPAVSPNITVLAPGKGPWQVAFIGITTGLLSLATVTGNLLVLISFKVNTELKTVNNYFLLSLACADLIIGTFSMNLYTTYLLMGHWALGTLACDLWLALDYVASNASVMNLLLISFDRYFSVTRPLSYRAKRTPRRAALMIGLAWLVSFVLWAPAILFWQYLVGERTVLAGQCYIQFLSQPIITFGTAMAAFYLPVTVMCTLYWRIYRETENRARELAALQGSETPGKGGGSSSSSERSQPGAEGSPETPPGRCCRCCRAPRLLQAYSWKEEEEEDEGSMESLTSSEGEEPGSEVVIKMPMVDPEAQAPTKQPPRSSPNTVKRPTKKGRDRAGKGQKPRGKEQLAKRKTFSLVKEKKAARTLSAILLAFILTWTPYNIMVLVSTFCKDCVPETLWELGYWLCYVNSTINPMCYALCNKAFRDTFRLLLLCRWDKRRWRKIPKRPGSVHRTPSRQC
Briefly: [3H]NMS radioligand displacement; also antagonism of CCh-induced calcium mobilization. Type of assay: binding. An excerpt:
[3H]NMS radioligand displacement; also antagonism of CCh-induced calcium mobilization on human M1 muscarinic acetylcholine receptor (hM1 mAChR) | DEET displaced the [^3H]N-Methyl Scopolamine (NMS) binding from M1 and M3 mAChRs but only in the millimolar range

The target of assay [3] is T2, human M3 muscarinic acetylcholine receptor (hM3 mAChR) (Homo sapiens, UniProt P20309).
T2 construct: gene CHRM3; membranes of CHO cells stably expressing human M3
The description is as above. Format: binding.

Structures are written as SMILES.

T2 sequence (P20309 whole entry): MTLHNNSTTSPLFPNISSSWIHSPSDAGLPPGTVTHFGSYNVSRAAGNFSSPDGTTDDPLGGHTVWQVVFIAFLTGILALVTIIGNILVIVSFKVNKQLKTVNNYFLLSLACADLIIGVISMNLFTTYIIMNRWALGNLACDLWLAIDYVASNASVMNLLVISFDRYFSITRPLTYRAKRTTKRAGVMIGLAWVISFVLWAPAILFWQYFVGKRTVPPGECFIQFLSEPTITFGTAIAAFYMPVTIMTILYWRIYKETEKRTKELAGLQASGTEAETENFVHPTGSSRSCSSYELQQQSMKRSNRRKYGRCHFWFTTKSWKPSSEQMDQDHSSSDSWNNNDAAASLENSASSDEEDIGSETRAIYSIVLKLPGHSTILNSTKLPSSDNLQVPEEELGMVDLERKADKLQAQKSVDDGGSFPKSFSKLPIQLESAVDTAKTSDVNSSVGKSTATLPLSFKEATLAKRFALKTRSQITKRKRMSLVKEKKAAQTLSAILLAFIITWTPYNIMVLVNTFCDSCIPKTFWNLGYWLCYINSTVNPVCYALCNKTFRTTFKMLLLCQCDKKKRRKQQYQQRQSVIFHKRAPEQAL

On to `CNC(=O)Oc1ccccc1OC(C)C` [propoxur, 2-isopropoxyphenylmethylcarbamate], for which the IC50 in assay [1] is 0.02 µM. Turning to `CCN(CC)C(=O)c1cccc(C)c1` [DEET, N,N-Diethyl-3-methylbenzamide], the results for the Ki in assay [2] and in assay [3] were 690 ± 190 µM and 370 ± 20 µM, respectively.
